Tested on: male and female Sprague–Dawley rats
Experiment: 90-day subchronic oral gavage toxicity study
Type: in vivo, rat
Conditions: female
Experimental: Subchronic (90-day) studies were performed in accordance with current U.S. EPA’s Toxic Substances Control Act Good Laboratory Practice (GLP) Standards, with the following two general exceptions to the GLP guidelines: Analysis of the dose formulations was conducted according to RTI-approved Standard Operating Procedures, and corn oil (the vehicle) was not characterized (certificate of analysis from the vendor is available in the appendices to the final reports). Male and female Sprague–Dawley rats (five dose levels plus a control, n = 10/sex/dose group, corn oil vehicle dose volume of 3 mL/kg; oral gavage) were used in these studies, and the rats were euthanized on SD 91. The dose levels for PFHI were 0, 12.5, 25, 50, 100, and 200 mg/kg-day. The dose levels for MHFPK were 0, 18.8, 37.5, 75, 150, and 300 mg/kg-day. The dose levels for PFNAC were 0, 0.1, 0.3, 1.0, 3.0, and 10 mg/kg-day for male rats and 0, 0.3, 1.0, 3.0, 10, and 30 mg/kg-day for female rats. For CTFPA, the dose levels were 0, 1.9, 3.8. 7.5, 15, and 30 mg/kg-day for male rats and 0, 6.3, 12.5, 25, 50, and 100 mg/kg-day for female rats. For each PFAS, three batches of dosing solution were prepared. The time between the batch preparation of the dosing solutions ranged between 29 and 39 days. Blood samples were collected from all the rats at termination for serum chemistry, hematology, coagulation, and the analysis of the parent PFAS chemical in the plasma. In vivo data collection and further detail on the endpoints examined postmortem are described below.
The rats were observed twice daily for morbidity and mortality throughout the study period. At least once prior to randomization to test groups and weekly thereafter, the rats were physically examined, and bodyweights were obtained. Feed consumption was quantified weekly starting on SD 1.
Neurotoxicity was evaluated using the functional observational battery (FOB) and measuring locomotor activity (LMA) 2–4 h post dosing on SDs 78–80 and 80–84, respectively. For both the 14- and 90-day studies, an ophthalmologic examination was conducted prior to randomization and near the end of the study, using indirect ophthalmoscopy and slit–lamp biomicroscopy (as needed) after the administration of a mydriatic solution.
Hematology, biochemistry, and coagulation endpoints were measured at the termination of the study. A Siemens Advia 2120i hematology analyzer (Siemens Healthineers, Erlangen, Germany) was used to measure (or calculate) the parameters related to the complete blood count, leukocyte differential count, and reticulocyte count. The hematology parameters are listed and described in Table 2. The prothrombin time […] and activated partial thromboplastin time (APTT) were measured using an Instrumentation Laboratory (Bedford, MA, USA) ACL Elite Pro coagulation analyzer (laser–nephelometric centrifugal method).
At necropsy, the rats were visually examined for external abnormalities and organ weights (absolute and relative to the BW and brain weight), which were recorded (paired organs weighed together). The tissues were preserved in 10% neutral buffered formalin (NBF), except for the ocular tissues, testes, and epididymides, which were preserved in modified Davidson’s fixative and later transferred to 10% NBF. Bone marrow smears were prepared from the femurs, and the slides were air-dried, fixed in methanol, stained, and stored at room temperature for possible future evaluation. The preserved tissues were embedded in paraffin, sectioned, stained with hematoxylin and eosin, and examined by a board-certified veterinary pathologist.
Statistical analysis was performed using Provantis™ Version 10 or greater (Instem LSS, Limited; Stone, Staffordshire, UK). Differences among the treatment groups compared to the control were evaluated using one-way analysis of variance (ANOVA) if the underlying assumptions of a normal distribution (Shapiro–Wilk test) and the homogeneity of the variance (Levene’s test) were satisfied. […]

O=C(O)C(F)(Cl)C(F)(F)F (centres unmarked) [CTFPA, 2-Chloro-2,3,3,3-tetrafluoropropanoic acid]
Kidney Weight (12.5 mg/kg-day): 1.97 g | Kidney/Body Weight (12.5 mg/kg-day): 0.60% | Kidney/Brain Weight (12.5 mg/kg-day): 93.7% | Liver Weight (12.5 mg/kg-day): 8.97 g | Liver/Body Weight (12.5 mg/kg-day): 2.71% | Liver/Brain Weight (12.5 mg/kg-day): 428% | MPV (12.5 mg/kg-day): 8.00 ± 0.97 fL | PT (12.5 mg/kg-day): 14.17 s | Total BW change (12.5 mg/kg-day): 119.91 g | Total Food Consumed (12.5 mg/kg-day): 1559 g | A/G (15 mg/kg-day): 1.19±0.08 ratio | ALB (15 mg/kg-day): 4.46 ± 0.44 g/dL | ALPi (15 mg/kg-day): 57.7±20.2 U/L | BUN (15 mg/kg-day): 16.3 ± 2.3 mg/dL | CHOL (15 mg/kg-day): 96.5 ± 26.2 mg/dL | GLOB (15 mg/kg-day): 3.73 ± 0.20 g/dL | GLUC (15 mg/kg-day): 154.6 ± 21.6 mg/dL | % BW Gain (25 mg/kg-day): 53.36% | % Diff, % BW Gain (25 mg/kg-day): 1.29% | % Diff, Total BW change (25 mg/kg-day): 1.52% | % Diff, Total Food Consumed (25 mg/kg-day): 2.96% | APTT (25 mg/kg-day): 21.82 s | HCT (25 mg/kg-day): 46.61±2.96% | HGB (25 mg/kg-day): 14.62 ± 1.04 g/dL | Kidney Weight (25 mg/kg-day): 1.97 g | Kidney/Body Weight (25 mg/kg-day): 0.60% | Kidney/Brain Weight (25 mg/kg-day): 95.0% | Liver Weight (25 mg/kg-day): 9.97 g | Liver/Body Weight (25 mg/kg-day): 3.02% | Liver/Brain Weight (25 mg/kg-day): 483% | MPV (25 mg/kg-day): 7.65 ± 0.50 fL | PT (25 mg/kg-day): 14.34 s | Total BW change (25 mg/kg-day): 115.80 g | Total Food Consumed (25 mg/kg-day): 1589 g | A/G (30 mg/kg-day): 1.22±0.07 ratio | ALB (30 mg/kg-day): 4.62 ± 0.45 g/dL | ALPi (30 mg/kg-day): 74.1±17.5 U/L | BUN (30 mg/kg-day): 18.3 ± 2.5 mg/dL | CHOL (30 mg/kg-day): 101.9 ± 15.8 mg/dL | GLOB (30 mg/kg-day): 3.77 ± 0.25 g/dL | GLUC (30 mg/kg-day): 153.4 ± 21.2 mg/dL | % BW Gain (50 mg/kg-day): 51.94% | % Diff, % BW Gain (50 mg/kg-day): -1.40% | % Diff, Total BW change (50 mg/kg-day): -0.34% | % Diff, Total Food Consumed (50 mg/kg-day): 2.22% | APTT (50 mg/kg-day): 17.22 s | HCT (50 mg/kg-day): 45.75±1.73% | HGB (50 mg/kg-day): 14.30 ± 0.57 g/dL | Kidney Weight (50 mg/kg-day): 2.07 g | Kidney/Body Weight (50 mg/kg-day): 0.63% | Kidney/Brain Weight (50 mg/kg-day): 102% | Liver Weight (50 mg/kg-day): 10.49 g | Liver/Body Weight (50 mg/kg-day): 3.21% | Liver/Brain Weight (50 mg/kg-day): 520% | MPV (50 mg/kg-day): 8.10 ± 0.46 fL | PT (50 mg/kg-day): 14.57 s | Total BW change (50 mg/kg-day): 113.68 g | Total Food Consumed (50 mg/kg-day): 1577 g | % BW Gain (100 mg/kg-day): 49.85% | % Diff, % BW Gain (100 mg/kg-day): -5.37% | % Diff, Total BW change (100 mg/kg-day): -5.90% | % Diff, Total Food Consumed (100 mg/kg-day): 4.68% | APTT (100 mg/kg-day): 21.23 s | HCT (100 mg/kg-day): 46.76±2.13% | HGB (100 mg/kg-day): 14.60 ± 0.66 g/dL | Kidney Weight (100 mg/kg-day): 2.05 g | Kidney/Body Weight (100 mg/kg-day): 0.65% | Kidney/Brain Weight (100 mg/kg-day): 104%
